The text below walks through data of patent US20070072831A1, “Integrase inhibitor compounds” (GILEAD SCIENCES, INC., priority 2005, published 2007).

The test system of one assay is HIV-IIIb. The experiment in a line: Antiviral assay in MT-4 cells infected with HIV-IIIb. Type of assay: cell-based. Conditions: MT4, 120 h; MT-4 cells, HIV-IIIb, 5 days; read-out: EC50 Range MT-4. On the procedure: See: Wolfe, etal J. Virol.
Antiviral Assays in MT2 and MT4 Cells
For the antiviral assay utilizing MT-2 cells, 50 μl of 2× test concentration of 5-fold serially diluted compound in culture medium with 10% FBS was added to each well of a 96-well plate (9 concentrations) in triplicate. MT-2 cells were infected with HIV-IIIb at a multiplicity of infection (m.o.i) of 0.01 for 3 hours. Fifty microliters of infected cell suspension in culture medium with 10% FBS (˜1.5×10^4 cells) was then added to each well containing 50 μl of diluted compound. The plates were then incubated at 37° C. for 5 days. For the antiviral assay utilizing MT-4 cells, 20 μl of 2× test concentration of 5-fold serially diluted compound in culture medium with 10% FBS was added to each well of a 384-well plate (7 concentrations) in triplicate. MT-4 cells were next mixed with HIV-IIIb at an m.o.i. of 0.1 and 20 μl of virus/cell mixture (˜2000 cells) was immediately added to each well containing 20 μl of diluted compound. The plates were then incubated at 37° C. for 5 days. After 5 days of incubation, 100 μl of CellTiter-Glo™ Reagent (catalog # G7571, Promega Biosciences, Inc., Madison, Wis.) was added to each well containing MT-2 cells and 40 μl to each well containing MT-4 cells. Cell lysis was carried out by incubating at room temperature for 10 min and then chemiluminescence was read.

For a further assay, the target named is HIV integrase (Human immunodeficiency virus type 1 group M subtype B, UniProt P04585). The experiment in a line: biochemical.

As usually defined, the EC50 is the concentration at which the effect is half-maximal. The term IC50 denotes the concentration that gives 50% inhibition. Read a low IC50 as greater potency in that assay. Take `CC1c2c(c(O)c3ncccc3c2N(C)S(C)(=O)=O)C(=O)N1Cc1ccc(F)cc1` (racemic) [Compound 74, N-(7-(4-fluorobenzyl)-9-hydroxy-6-(R and S)-methyl-8-oxo-7,8-dihydro-6H-pyrrolo[3,4-g]quinolin-5-yl)-N-methylmethanesulfonamide]: in the assay on HIV-IIIb, the EC50 was less than 60 nM. The same compound gave an IC50 on HIV integrase of less than 60 nM.
On to `C[C@H]1c2c(c(O)c3ncccc3c2N(C)S(C)(=O)=O)C(=O)N1Cc1ccc(F)cc1` (single isomer, unassigned) [Compound 75], for which the EC50 with HIV-IIIb was less than 60 nM. Moreover, the IC50 against HIV integrase was less than 60 nM.
Regarding `C[C@@H]1c2c(c(O)c3ncccc3c2N(C)S(C)(=O)=O)C(=O)N1Cc1ccc(F)cc1` (single isomer, unassigned) [Compound 76], the EC50 in the assay on HIV-IIIb was less than 60 nM. Further, the IC50 on HIV integrase is less than 60 nM.
As to `CN(c1c2c(c(O)c3ncccc13)C(=O)N(Cc1ccc(F)cc1)C2O)S(C)(=O)=O` (single isomer, unassigned) [Compound 166, N-(7-(4-fluorobenzyl)-6,9-dihydroxy-8-oxo-7,8-dihydro-6H-pyrrolo[3,4-g]quinolin-5-yl)-N-methylmethanesulfonamide], the EC50 in the assay on HIV-IIIb is less than 60 nM. For the same compound, the IC50 against HIV integrase was less than 60 nM.
For the compound `Nc1c2c(c(O)c3ncccc13)C(=O)N(Cc1ccc(F)cc1)C2=O` [Compound 8, 5-amino-7-(4-fluorobenzyl)-9-hydroxy-6H-pyrrolo[3,4-g]quinoline-6,8(7H)-dione], in the assay on HIV-IIIb, the 50% effective concentration (EC50) is more than 1000 nM. The compound further had an IC50 at HIV integrase of 60 to 1000 nM.
With `CN(c1c2c(c(O)c3ncccc13)C(=O)N(Cc1ccc(F)cc1)C2)S(C)(=O)=O` [Compound 29, N-(7-(4-fluorobenzyl)-9-hydroxy-8-oxo-7,8-dihydro-6H-pyrrolo[3,4-g]quinolin-5-yl)-N-methylmethanesulfonamide], in the assay with HIV-IIIb, the EC50 is less than 60 nM. In addition, the IC50 against HIV integrase was less than 60 nM.
Take `CN(c1c2c(c(OCOC(=O)OC3CCCC3)c3ncccc13)C(=O)N(Cc1ccc(F)cc1)C2)S(C)(=O)=O` [Compound 30, (7-(4-fluorobenzyl)-5-(N-methylmethan-5-ylsulfonamido)-8-oxo-7,8-dihydro-6H-pyrrolo[3,4-g]quinolin-9-yloxy)methyl cyclopentyl carbonate]: the 50% effective concentration (EC50) with HIV-IIIb was 60 to 1000 nM. At HIV integrase, this compound showed an IC50 of more than 1000 nM.
The matching figures for `CN(c1c2c(c(OCOC(=O)OC3CCC3)c3ncccc13)C(=O)N(Cc1ccc(F)cc1)C2)S(C)(=O)=O` [Compound 31, (7-(4-fluorobenzyl)-5-(N-methylmethan-5-ylsulfonamido)-8-oxo-7,8-dihydro-6H-pyrrolo[3,4-g]quinolin-9-yloxy)methyl cyclobutyl carbonate]: less than 60 nM and more than 1000 nM.
`CCC(CC)OC(=O)OCOc1c2c(c(N(C)S(C)(=O)=O)c3cccnc13)CN(Cc1ccc(F)cc1)C2=O` [Compound 32, (7-(4-fluorobenzyl)-5-(N-methylmethan-5-ylsulfonamido)-8-oxo-7,8-dihydro-6H-pyrrolo[3,4-g]quinolin-9-yloxy)methyl pentan-3-yl carbonate]: the EC50 with HIV-IIIb lay in the range of 60 to 1000 nM. The compound further had an IC50 on HIV integrase of more than 1000 nM.
On to `CC(C)OC(=O)OCOc1c2c(c(N(C)S(C)(=O)=O)c3cccnc13)CN(Cc1ccc(F)cc1)C2=O` [Compound 33, (7-(4-fluorobenzyl)-5-(N-methylmethan-5-ylsulfonamido)-8-oxo-7,8-dihydro-6H-pyrrolo[3,4-g]quinolin-9-yloxy)methyl isopropyl carbonate], for which the EC50 with HIV-IIIb is less than 60 nM. The same compound showed an IC50 on HIV integrase of more than 1000 nM.
`CC(C)OC(=O)Oc1c2c(c(N(C)S(C)(=O)=O)c3cccnc13)CN(Cc1ccc(F)cc1)C2=O` [Compound 34, 7-(4-fluorobenzyl)-5-(N-methylmethan-5-ylsulfonamido)-8-oxo-7,8-dihydro-6H-pyrrolo[3,4-g]quinolin-9-yl isopropyl carbonate]: in the assay with HIV-IIIb, the EC50 is less than 60 nM. Further, the IC50 at HIV integrase was more than 1000 nM.
As to `CN(C)S(=O)(=O)N(C)c1c2c(c(O)c3ncccc13)C(=O)N(Cc1ccc(F)cc1)C2` [Compound 38, N-(7-(4-fluorobenzyl)-9-hydroxy-8-oxo-7,8-dihydro-6H-pyrrolo[3,4-g]quinolin-5-yl)-N,N′,N′-trimethylsulfamide], in the assay on HIV-IIIb, the EC50 was less than 60 nM. On HIV integrase, this compound displayed an IC50 of 60 to 1000 nM.
The matching figures for `CN(C)S(=O)(=O)Nc1c2c(c(O)c3ncccc13)C(=O)N(Cc1ccc(F)cc1)C2` [Compound 41, N-(7-(4-fluorobenzyl)-9-hydroxy-8-oxo-7,8-dihydro-6H-pyrrolo[3,4-g]quinolin-5-yl)-N′,N′-dimethylsulfamide]: less than 60 nM and 60 to 1000 nM.
Regarding `CN(C)CCCS(=O)(=O)N(C)c1c2c(c(O)c3ncccc13)C(=O)N(Cc1ccc(F)cc1)C2` [Compound 44, N-(7-(4-fluorobenzyl)-9-hydroxy-8-oxo-7,8-dihydro-6H-pyrrolo[3,4-g]quinolin-5-yl)-N-methyl-3-(dimethylamino)-propane-1-sulfonamide], the EC50 in the assay on HIV-IIIb was less than 60 nM. Further, the IC50 against HIV integrase was less than 60 nM.
Turning to `CN(c1c2c(c(O)c3ncccc13)C(=O)N(Cc1ccc(F)cc1)C2)S(=O)(=O)CCCN1CCOCC1` [Compound 46, N-(7-(4-fluorobenzyl)-9-hydroxy-8-oxo-7,8-dihydro-6H-pyrrolo[3,4-g]quinolin-5-yl)-N-methyl-3-morpholinopropane-1-sulfonamide], the EC50 with HIV-IIIb was less than 60 nM.
For the compound `CN(c1c2c(c(O)c3ncccc13)C(=O)N(Cc1ccc(F)cc1)C2)S(=O)(=O)CCCC#N` [Compound 48, 3-cyano-N-(7-(4-fluorobenzyl)-9-hydroxy-8-oxo-7,8-dihydro-6H-pyrrolo[3,4-g]quinolin-5-yl)-N-methylpropane-1-sulfonamide], the EC50 in the assay with HIV-IIIb was less than 60 nM.
Still for that read-out and setting: the same measure for `CN(c1c2c(c(O)c3ncccc13)C(=O)N(Cc1ccc(F)cc1)C2)S(=O)(=O)CCCn1ccnc1` [Compound 49, N-(7-(4-fluorobenzyl)-9-hydroxy-8-oxo-7,8-dihydro-6H-pyrrolo[3,4-g]quinolin-5-yl)-3-(1 H-imidazol-1-yl)-N-methylpropane-1-sulfonamide]: less than 60 nM.
In the case of `O=C1c2c(c(N3CCCS3(=O)=O)c3cccnc3c2O)CN1Cc1ccc(F)cc1` [Compound 52, N-(7-(4-fluorobenzyl)-9-hydroxy-8-oxo-7,8-dihydro-6H-pyrrolo[3,4-g]quinolin-5-yl)-N-2-dioxoisothiazolidine], in the assay on HIV-IIIb, the EC50 was less than 60 nM. The IC50 against HIV integrase is less than 60 nM.
Consider `CC(C)S(=O)(=O)N(C)c1c2c(c(O)c3ncccc13)C(=O)N(Cc1ccc(F)cc1)C2` [Compound 54, N-(7-(4-fluorobenzyl)-9-hydroxy-8-oxo-7,8-dihydro-6H-pyrrolo[3,4-g]quinolin-5-yl)-N-methylpropane-2-sulfonamide], for which, in the assay on HIV-IIIb, the concentration for a half-maximal effect (EC50) is less than 60 nM. At HIV integrase, this compound gave an IC50 of 60 to 1000 nM.
Taken in the same sequence, the figures for `CN(c1c2c(c(O)c3ncccc13)C(=O)N(Cc1ccc(F)cc1)C2)S(=O)(=O)c1cn(C)cn1` [Compound 56, N-(7-(4-fluorobenzyl)-9-hydroxy-8-oxo-7,8-dihydro-6H-pyrrolo[3,4-g]quinolin-5-yl)-N,1-dimethyl-1 H-imidazole-4-sulfonamide] were less than 60 nM and less than 60 nM.
The matching figures for `Cc1nc(C)c(S(=O)(=O)N(C)c2c3c(c(O)c4ncccc24)C(=O)N(Cc2ccc(F)cc2)C3)s1` [Compound 58, N-(7-(4-fluorobenzyl)-9-hydroxy-8-oxo-7,8-dihydro-6H-pyrrolo[3,4-g]quinolin-5-yl)-N,2,4-trimethylthiazole-5-sulfonamide]: less than 60 nM and 60 to 1000 nM.
`CN(C)CCS(=O)(=O)N(C)c1c2c(c(O)c3ncccc13)C(=O)N(Cc1ccc(F)cc1)C2` [Compound 60, N-(7-(4-fluorobenzyl)-9-hydroxy-8-oxo-7,8-dihydro-6H-pyrrolo[3,4-g]quinolin-5-yl)-N-methyl-2-dimethylaminoethane-1-sulfonamide]: the EC50 in the assay with HIV-IIIb is less than 60 nM. In addition, at HIV integrase, the IC50 was less than 60 nM.
Take `CN(C)C(=O)C(=O)N(C)c1c2c(c(O)c3ncccc13)C(=O)N(Cc1ccc(F)cc1)C2` [Compound 62, N1-(7-(4-fluorobenzyl)-9-hydroxy-8-oxo-7,8-dihydro-6H-pyrrolo[3,4-g]quinolin-5-yl)-N1,N2,N2-trimethyloxalamide]: in the assay on HIV-IIIb, the EC50 is less than 60 nM. The compound further gave an IC50 at HIV integrase of 60 to 1000 nM.
Consider `CC(=O)N(C)c1c2c(c(O)c3ncccc13)C(=O)N(Cc1ccc(F)cc1)C2` [Compound 64, N-(7-(4-fluorobenzyl)-9-hydroxy-8-oxo-7,8-dihydro-6H-pyrrolo[3,4-g]quinolin-5-yl)-N-methylacetamide], for which, in the assay on HIV-IIIb, the EC50 was less than 60 nM. This compound came in with a 50% inhibitory concentration (IC50) against HIV integrase of less than 60 nM.
Regarding `CC(C)C(=O)Nc1c2c(c(O)c3ncccc13)C(=O)N(Cc1ccc(F)cc1)C2` [Compound 67, N-(7-(4-fluorobenzyl)-9-hydroxy-8-oxo-7,8-dihydro-6H-pyrrolo[3,4-g]quinolin-5-yl)isobutyramide], in the assay on HIV-IIIb, the EC50 is less than 60 nM. On HIV integrase, this compound came in with an IC50 of less than 60 nM.
As for `CCNS(=O)(=O)N(CC)c1c2c(c(O)c3ncccc13)C(=O)N(Cc1ccc(F)cc1)C2` [Compound 232], in the assay with HIV-IIIb, the EC50 was less than 60 nM.
